Assay results published in PubChem BioAssay (NCI).
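Tested at 5 concentrations; 48 h exposure; 96-well plates; endpoints linearly interpolated, else capped at highest concentration. TGI: concentration producing complete growth inhibition.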

Experiments:
Test in all cases: NCI-60 cell line screen, 48 h
OVCAR-5 ovarian = system: OVCAR-5 ovarian
A549 NSCLC = system: A549 NSCLC
MALME-3M melanoma = system: MALME-3M melanoma
OVCAR-8 ovarian = system: OVCAR-8 ovarian
UACC-62 melanoma = system: UACC-62 melanoma
RXF 393 renal = system: RXF 393 renal
HL-60(TB) leukemia = system: HL-60(TB) leukemia
HS 578T breast = system: HS 578T breast
SF-268 CNS = system: SF-268 CNS
HOP-62 NSCLC = system: HOP-62 NSCLC
BT-549 breast = system: BT-549 breast
UACC-257 melanoma = system: UACC-257 melanoma
NCI-H460 lung = system: NCI-H460 lung
HCT-116 colon = system: HCT-116 colon
786-0 renal = system: 786-0 renal
SNB-19 CNS = system: SNB-19 CNS
SR leukemia = system: SR leukemia
MDA-N = system: MDA-N
NCI/ADR-RES ovarian = system: NCI/ADR-RES ovarian
A498 renal = system: A498 renal
DU-145 prostate = system: DU-145 prostate
OVCAR-3 ovarian = system: OVCAR-3 ovarian
TK-10 renal = system: TK-10 renal
IGROV1 ovarian = system: IGROV1 ovarian
LOX IMVI melanoma = system: LOX IMVI melanoma
M14 melanoma = system: M14 melanoma
SK-MEL-2 melanoma = system: SK-MEL-2 melanoma
NCI-H226 lung = system: NCI-H226 lung
MOLT-4 leukemia = system: MOLT-4 leukemia
PC-3 prostate = system: PC-3 prostate
SK-MEL-28 melanoma = system: SK-MEL-28 melanoma
SF-539 CNS = system: SF-539 CNS
MDA-MB-231 breast = system: MDA-MB-231 breast
HOP-92 NSCLC = system: HOP-92 NSCLC
UO-31 renal = system: UO-31 renal
ACHN renal = system: ACHN renal
NCI-H522 lung = system: NCI-H522 lung
HCT-15 colon = system: HCT-15 colon
EKVX NSCLC = system: EKVX NSCLC
MCF7 breast = system: MCF7 breast
SK-MEL-5 melanoma = system: SK-MEL-5 melanoma
OVCAR-4 ovarian = system: OVCAR-4 ovarian
U251 CNS = system: U251 CNS
T-47D breast = system: T-47D breast
HCC-2998 colon = system: HCC-2998 colon
HT29 colon = system: HT29 colon
SK-OV-3 ovarian = system: SK-OV-3 ovarian
COLO 205 colon = system: COLO 205 colon
MDA-MB-435 = system: MDA-MB-435
CAKI-1 renal = system: CAKI-1 renal
SF-295 CNS = system: SF-295 CNS
SN12C renal = system: SN12C renal
KM12 colon = system: KM12 colon
NCI-H23 lung = system: NCI-H23 lung
SW-620 colon = system: SW-620 colon
SNB-75 CNS = system: SNB-75 CNS
K-562 leukemia = system: K-562 leukemia
RPMI-8226 leukemia = system: RPMI-8226 leukemia
CCRF-CEM leukemia = system: CCRF-CEM leukemia

SMILES: CNC(=O)OCc1c(COC(=O)NC)c(-c2ccc(-c3ccccc3)cc2)n(C)c1C
- TGI (OVCAR-5 ovarian): 8.26 µM
- TGI (A549 NSCLC): 14.1 µM
- TGI (MALME-3M melanoma): 10.6 µM
- TGI (OVCAR-8 ovarian): 10.4 µM
- TGI (UACC-62 melanoma): 5.46 µM
- TGI (RXF 393 renal): 2910 nM
- TGI (HL-60(TB) leukemia): 18.1 µM
- TGI (HS 578T breast): > 68.2 µM
- TGI (SF-268 CNS): 5.32 µM
- TGI (HOP-62 NSCLC): 18.8 µM
- TGI (BT-549 breast): 7.11 µM
- TGI (UACC-257 melanoma): 37.3 µM
- TGI (NCI-H460 lung): 12.2 µM
- TGI (HCT-116 colon): 14.1 µM
- TGI (786-0 renal): 10.2 µM
- TGI (SNB-19 CNS): 16.9 µM
- TGI (SR leukemia): > 100 µM
- TGI (MDA-N): 18.5 µM
- TGI (NCI/ADR-RES ovarian): 12.6 µM
- TGI (A498 renal): 2390 nM
- TGI (DU-145 prostate): 9.4 µM
- TGI (OVCAR-3 ovarian): 7.88 µM
- TGI (TK-10 renal): 15.4 µM
- TGI (IGROV1 ovarian): 12 µM
- TGI (LOX IMVI melanoma): 11.7 µM
- TGI (M14 melanoma): 6.84 µM
- TGI (SK-MEL-2 melanoma): 4.96 µM
- TGI (NCI-H226 lung): 32.5 µM
- TGI (MOLT-4 leukemia): 8.95 µM
- TGI (PC-3 prostate): 12.3 µM
- TGI (SK-MEL-28 melanoma): 28.7 µM
- TGI (SF-539 CNS): 8.37 µM
- TGI (MDA-MB-231 breast): 10.2 µM
- TGI (HOP-92 NSCLC): 11.9 µM
- TGI (UO-31 renal): 3.1 µM
- TGI (ACHN renal): 4.27 µM
- TGI (NCI-H522 lung): 4.04 µM
- TGI (HCT-15 colon): 9.43 µM
- TGI (EKVX NSCLC): 11.1 µM
- TGI (MCF7 breast): 14.5 µM
- TGI (SK-MEL-5 melanoma): 14 µM
- TGI (OVCAR-4 ovarian): 10.9 µM
- TGI (U251 CNS): 10.9 µM
- TGI (T-47D breast): 35.2 µM
- TGI (HCC-2998 colon): 13.1 µM
- TGI (HT29 colon): 13.9 µM
- TGI (SK-OV-3 ovarian): 11.8 µM
- TGI (COLO 205 colon): 16.5 µM
- TGI (MDA-MB-435): 21.9 µM
- TGI (CAKI-1 renal): 5.14 µM
- TGI (SF-295 CNS): 10.8 µM
- TGI (SN12C renal): 3.8 µM
- TGI (KM12 colon): 24.9 µM
- TGI (NCI-H23 lung): 10.2 µM
- TGI (SW-620 colon): 28.3 µM
- TGI (SNB-75 CNS): 10.6 µM

SMILES: Nc1cc([N+](=O)[O-])ccc1C(=O)N1CCC[C@H]1CO
- TGI (A549 NSCLC): > 100 µM
- TGI (K-562 leukemia): > 100 µM
- TGI (MALME-3M melanoma): > 100 µM
- TGI (OVCAR-8 ovarian): > 100 µM
- TGI (UACC-62 melanoma): > 100 µM
- TGI (RXF 393 renal): > 100000 nM
- TGI (HL-60(TB) leukemia): > 100 µM
- TGI (HS 578T breast): > 100 µM
- TGI (SF-268 CNS): > 100 µM
- TGI (BT-549 breast): > 100 µM
- TGI (UACC-257 melanoma): > 100 µM
- TGI (NCI-H460 lung): > 100 µM
- TGI (HCT-116 colon): > 100 µM
- TGI (786-0 renal): > 100 µM
- TGI (SNB-19 CNS): > 100 µM
- TGI (SR leukemia): > 100 µM
- TGI (MDA-N): > 100 µM
- TGI (NCI/ADR-RES ovarian): > 100 µM
- TGI (A498 renal): > 100000 nM
- TGI (DU-145 prostate): > 100 µM
- TGI (TK-10 renal): > 100 µM
- TGI (IGROV1 ovarian): > 100 µM
- TGI (LOX IMVI melanoma): > 100 µM
- TGI (SK-MEL-2 melanoma): > 100 µM
- TGI (NCI-H226 lung): > 100 µM
- TGI (MOLT-4 leukemia): > 100 µM
- TGI (PC-3 prostate): > 100 µM
- TGI (SK-MEL-28 melanoma): > 100 µM
- TGI (SF-539 CNS): > 100 µM
- TGI (MDA-MB-231 breast): > 100 µM
- TGI (HOP-92 NSCLC): > 100 µM
- TGI (UO-31 renal): > 100 µM
- TGI (ACHN renal): > 100 µM
- TGI (NCI-H522 lung): > 100 µM
- TGI (HCT-15 colon): > 100 µM
- TGI (EKVX NSCLC): > 100 µM
- TGI (MCF7 breast): > 100 µM
- TGI (RPMI-8226 leukemia): > 100 µM
- TGI (OVCAR-4 ovarian): > 100 µM
- TGI (U251 CNS): > 100 µM
- TGI (T-47D breast): > 100 µM
- TGI (HT29 colon): > 100 µM
- TGI (SK-OV-3 ovarian): > 100 µM
- TGI (COLO 205 colon): > 100 µM
- TGI (CCRF-CEM leukemia): > 100 µM
- TGI (MDA-MB-435): > 100 µM
- TGI (CAKI-1 renal): > 100 µM
- TGI (SF-295 CNS): > 100 µM
- TGI (SN12C renal): > 100 µM
- TGI (KM12 colon): > 100 µM
- TGI (NCI-H23 lung): > 100 µM
- TGI (SW-620 colon): > 100 µM
- TGI (SNB-75 CNS): > 100 µM
